Key:
[1] = system: HCT116 cells; test: MTS growth inhibition assay; assay type: cell-based; conditions: colorectal HCT116; 5-FU between 0 and 100 μmol/L; 72 hours
Protocol: (§1) The Cell Titer AQueous MTS assay (Promega) is carried out according to the manufacturers guidelines. […] The combination effect is determined by the combination index (CI) method utilizing Calcusyn software (Biosoft, Ferguson, Mo.). Fraction affected (FA) is calculated from the percent growth inhibition: FA=[…]. CI values <1, synergism; 1-1.2, additive and >1.2, antagonism.
(§2) Test compounds are evaluated for their antitumor activity in colorectal cancer cells using the MTS growth inhibition assay. HCT116 and SW620 cells are exposed to increasing concentrations of each agent for 72 hours and growth inhibition is directly compared to vehicle-treated controls. The NSCLC cell lines A549 and H1299 are exposed to increasing concentrations of each agent for 72 hours and growth inhibition is directly compared to vehicle-treated controls.
(§3) MTS growth inhibition assays are performed to evaluate the effectiveness of the test compounds alone and in combination with the fluoropyrimidine thymidylate synthase (TS) inhibitor 5-fluorouracil (5-FU) at inhibiting the growth of colorectal (HCT116 and SW620) cell line models. […] Simultaneous treatment with increasing concentrations of 5-FU and a test compound at fixed concentrations of 25 μmol/L is determined.

[2] = system: SW620 cells; test: MTS growth inhibition assay; assay type: cell-based; conditions: colorectal SW620; 5-FU between 0 and 100 μmol/L; 72 hours
Protocol: as §1, §2, §3

[3] = target: T1, recombinant human deoxyuridine nucleotidohydrolase (dUTPase) (Homo sapiens, UniProt P33316); test: fluorescence-based dUTPase inhibition assay; assay type: biochemical; conditions: 5 ng recombinant dUTPase, 50 pmols dUTP, 37° C. for 8 mins
T1 construct: made in house
T1 sequence (P33316 1-164 isoform P33316-2): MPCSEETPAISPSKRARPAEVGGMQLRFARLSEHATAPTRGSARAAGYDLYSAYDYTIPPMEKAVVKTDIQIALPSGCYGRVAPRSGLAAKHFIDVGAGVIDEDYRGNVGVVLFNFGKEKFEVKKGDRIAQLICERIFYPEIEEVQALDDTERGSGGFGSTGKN
Description: Recombinant human deoxyuridine nucleotidohydrolase (dUTPase) is expressed and purified as described in Ladner R D, Carr S A, Huddleston M J, McNulty D E, Caradonna S J. J Biol Chem. 1996 Mar. 29; 271(13):7752-7. All drugs stocks are aliquoted and diluted as appropriate prior to use. The oligonucleotide primer, templates and fluorophore- and quencher-labeled detection probes are synthesized by Integrated DNA Technologies (Coralville, Iowa), subjected to polyacrylamide gel electrophoresis purification and reconstituted in Omnipur sterile nuclease-free water (EMD Chemicals USA, Gibbstown N.J.) at a stock concentration of 100 μmol/L. The two non-emissive (dark) quenching molecules incorporated into the detection probes include the Iowa black […] (IBFQ; absorption max 531 nm) and ZEN (non-abbreviation; absorption max 532 nm). The fluorescent label utilized is 6-FAM (5′-carboxyfluorescein; excitation max.=494 nm, emission max.=520 nm). Probes are further diluted to a working stock of 10 μmol/L and aliquoted to avoid repeated freeze/thaw cycles. […]
Reaction mixtures contained primer, probe and template at an equimolar final concentration of 0.4 μmol/L. Magnesium chloride (MgCl2) is included at a final concentration of 2 mmol/L. Non-limiting dNTPs are included in the reaction mix in excess at a final concentration of 100 μmol/L (dUTP/dTTP is excluded). […] Thermal profiling and fluorescence detection is performed using a customized thermal program on board a Roche Lightcycler LC480 Instrument II. […] Raw fluorescence spectra for 6-FAM is measured at specified time intervals to follow assay progression on board a Roche LightCycler 480 Software Version 1.5 and exported and analyzed in Microsoft Excel (Microsoft, Redmond Wash.) and Prism (GraphPad Software, La Jolla Calif.). Fluorescence values for blank reactions (limiting dNTP omitted) are subtracted to give normalized fluorescence units (NFU) to account for background fluorescence.
Test compounds are screened in a fluorescence-based assay. […]

[4] = system: MCF-7 cells; test: Colony forming assay; assay type: cell-based; conditions: breast MCF-7; FUdR between 0.5 and 2.5 μmol/L
Protocol: (§4) Colony forming assay showing the ability of colon (SW620, HCT116), non-small cell lung (A549, H460, H1299 and H358) and breast (MCF7) cancer cells to survive and proliferate following transient 24 hour exposure to test compounds, FUdR and combinations are determined. Specifically, cells are seeded at densities between 50 and 100 cells/well in 24-well plates. Twenty-four hours later, cells are treated with increasing concentrations of a rtest compound, a fixed dose of FUdR and combinations of these. After 24 hours, drug is removed, cells are rinsed and allowed to outgrow for 10-14 days. At the conclusion of the outgrowth, cells are fixed in 60% ice cold methanol and stained with 0.1% crystal violet, scanned and counted. Data is presented as percentage of untreated controls (mean±SD). Fraction affected and combination indexes are calculated according to the method of Chou and Talalay where <1 is indicative of a synergistic drug interaction.
(§5) Colony forming assays are performed to evaluate the effectiveness of test compounds alone and in combination with the fluoropyrimidine thymidylate synthase (TS) inhibitor fluorodeoxyuridine (FUdR) at reducing cancer cell viability in colorectal (HCT116), breast (MCF-7) and non-small cell lung (H1299, A549, H358 and H460) cell line models. […] In colorectal cancer cells, concentrations of test compounds ranging e.g., from 3.1 μmol/L to 50 μmol/L are combined with 0.5 μmol/L FUdR in HCT116 cells and 1 μmol/L FUdR in SW620 cells.

[5] = system: A549 cells; test: Colony forming assay; assay type: cell-based; conditions: non-small cell lung A549; FUdR between 0.5 and 2.5 μmol/L
Protocol: as §4, §5

[6] = system: HCT116 cells; test: Colony forming assay; assay type: cell-based; conditions: colorectal HCT116; FUdR between 0.5 and 2.5 μmol/L
Protocol: as §4, §5

[7] = system: H358 cells; test: Colony forming assay; assay type: cell-based; conditions: non-small cell lung H358; FUdR between 0.5 and 2.5 μmol/L
Protocol: as §4, §5

[8] = system: H460 cells; test: Colony forming assay; assay type: cell-based; conditions: non-small cell lung H460; FUdR between 0.5 and 2.5 μmol/L
Protocol: as §4, §5

[9] = system: H1299 cells; test: Colony forming assay; assay type: cell-based; conditions: non-small cell lung H1299; FUdR between 0.5 and 2.5 μmol/L
Protocol: as §4, §5

O=c1[nH]cc(F)c(=O)[nH]1 [Example 5-FU, 5-fluorouracil]
growth inhibition [1]: dose-dependent increases in growth inhibition
growth inhibition [2]: dose-dependent increases in growth inhibition

C[C@@H](NS(=O)(=O)CCc1cccc(N2CC(=O)NC2=O)c1)c1ccc(F)c(OCC2CC2)c1 [Example 79, (R)—N-(1-(3-(cyclopropylmethoxy)-4-fluorophenyl)ethyl)-2-(3-(2,4-dioxoimidazolidin-1-yl)phenyl)ethane-1-sulfonamide]
IC50 [3]: ~100 µM

C[C@@H](NS(=O)(=O)Cc1cccc(CN2CC(=O)NC2=O)c1)c1ccc(F)c(OCC2CC2)c1 [Example 81, (R)—N-(1-(3-(cyclopropylmethoxy)-4-fluorophenyl)ethyl)-1-(3-((2,4-dioxoimidazolidin-1-yl)methyl)phenyl)methanesulfonamide]
IC50 [3]: 80 µM

C[C@@H](NS(=O)(=O)Cc1ccc(CN2CC(=O)NC2=O)cc1)c1ccc(F)c(OCC2CC2)c1 [Example 82, (R)—N-(1-(3-(cyclopropylmethoxy)-4-fluorophenyl)ethyl)-1-(4-((2,4-dioxoimidazolidin-1-yl)methyl)phenyl)methanesulfonamide]
IC50 [3]: 2.2 µM

O=c1[nH]c(=O)n([C@H]2C[C@H](O)[C@@H](CO)O2)cc1F [FUdR, fluorodeoxyuridine]
colonies formed [4]: dose-dependent decreases in colonies formed
colonies formed [5]: dose-dependent decreases in colonies formed
colonies formed [6]: dose-dependent decreases in colonies formed
colonies formed [7]: dose-dependent decreases in colonies formed
colonies formed [8]: dose-dependent decreases in colonies formed
colonies formed [9]: dose-dependent decreases in colonies formed

— patent publication US11014924B2, “Hydantoin containing deoxyuridine triphosphatase inhibitors” (CV6 Therapeutics (NI) Limited, priority 2016, dated 2021)
